Two compounds from article PMC10434068, “Discriminating Susceptibility of Xanthine Oxidoreductase Family to Metals” (Microbiology Spectrum, 2023) can be followed below.

Experiment [1] concerns the target T1, pCOD (putative CO dehydrogenase; CoxSLM complex) (Rubrivivax gelatinosus, UniProt I0HW74+I0HW75).
T1 construct: gene coxL; native complex in soluble fraction, native PAGE band between 130 and 250 kDa; predicted 126 kDa (CoxL 84, CoxM 27, CoxS 17 kDa); band absent in coxL mutant; with Carbon monoxide dehydrogenase large chain; Carbon monoxide dehydrogenase small chain
T1 sequence (I0HW74 1-781): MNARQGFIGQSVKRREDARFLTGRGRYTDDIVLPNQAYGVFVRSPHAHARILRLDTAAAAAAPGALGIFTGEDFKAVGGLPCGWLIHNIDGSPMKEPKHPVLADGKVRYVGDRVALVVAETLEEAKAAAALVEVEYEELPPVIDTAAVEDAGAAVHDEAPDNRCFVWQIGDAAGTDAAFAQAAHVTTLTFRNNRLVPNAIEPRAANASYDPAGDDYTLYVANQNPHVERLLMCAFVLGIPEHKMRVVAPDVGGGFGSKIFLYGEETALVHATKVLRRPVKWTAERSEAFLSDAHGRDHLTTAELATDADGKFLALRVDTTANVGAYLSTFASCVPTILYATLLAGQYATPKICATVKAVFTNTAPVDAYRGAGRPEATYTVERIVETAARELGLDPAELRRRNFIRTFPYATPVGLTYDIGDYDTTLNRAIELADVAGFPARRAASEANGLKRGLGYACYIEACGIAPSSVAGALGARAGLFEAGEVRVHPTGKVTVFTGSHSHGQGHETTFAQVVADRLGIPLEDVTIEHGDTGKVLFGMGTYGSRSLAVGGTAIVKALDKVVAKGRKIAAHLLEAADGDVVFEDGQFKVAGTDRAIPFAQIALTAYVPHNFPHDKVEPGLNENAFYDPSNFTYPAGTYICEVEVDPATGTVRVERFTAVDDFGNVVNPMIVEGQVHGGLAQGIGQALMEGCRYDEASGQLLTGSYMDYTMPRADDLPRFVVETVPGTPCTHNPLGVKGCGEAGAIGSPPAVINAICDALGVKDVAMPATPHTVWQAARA
T1 sequence (I0HW75 1-265): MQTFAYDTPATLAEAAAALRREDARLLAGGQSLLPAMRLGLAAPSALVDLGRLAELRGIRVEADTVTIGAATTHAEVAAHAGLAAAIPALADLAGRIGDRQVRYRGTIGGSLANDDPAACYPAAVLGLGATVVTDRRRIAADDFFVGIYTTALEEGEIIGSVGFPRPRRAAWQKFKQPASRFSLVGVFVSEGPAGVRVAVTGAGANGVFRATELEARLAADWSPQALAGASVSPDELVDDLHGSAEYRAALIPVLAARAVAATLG
T1 sequence (I0HW73 1-155 partner): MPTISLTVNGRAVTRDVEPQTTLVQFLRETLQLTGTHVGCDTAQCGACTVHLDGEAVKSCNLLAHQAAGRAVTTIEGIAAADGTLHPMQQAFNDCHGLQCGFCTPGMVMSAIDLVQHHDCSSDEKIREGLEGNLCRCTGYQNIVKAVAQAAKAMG
The experiment is described as follows: in-gel NBT reductase activity, native PAGE of soluble fraction, no riboflavin. It is filed as biochemical. As to conditions: NBT 2 mg/mL; 50 mM Tris-HCl pH 7.6; room temperature, dark; no electron donor added; reduction may run through superoxide.

The target in experiment [2] is T2, XDH (xanthine dehydrogenase) of R. gelatinosus (Rubrivivax gelatinosus, UniProt I0HWE5).
T2 construct: gene xdhB; native complex of about 250 kDa in soluble fraction, native PAGE band; XdhB 82 kDa, XdhA 54 kDa, XdhC 27 kDa; band absent in xdhB mutant; with Xanthine dehydrogenase, FAD and iron-sulfur subunit XdhA; Xanthine dehydrogenase subunit or accessory protein XdhC
T2 sequence (I0HWE5 1-778): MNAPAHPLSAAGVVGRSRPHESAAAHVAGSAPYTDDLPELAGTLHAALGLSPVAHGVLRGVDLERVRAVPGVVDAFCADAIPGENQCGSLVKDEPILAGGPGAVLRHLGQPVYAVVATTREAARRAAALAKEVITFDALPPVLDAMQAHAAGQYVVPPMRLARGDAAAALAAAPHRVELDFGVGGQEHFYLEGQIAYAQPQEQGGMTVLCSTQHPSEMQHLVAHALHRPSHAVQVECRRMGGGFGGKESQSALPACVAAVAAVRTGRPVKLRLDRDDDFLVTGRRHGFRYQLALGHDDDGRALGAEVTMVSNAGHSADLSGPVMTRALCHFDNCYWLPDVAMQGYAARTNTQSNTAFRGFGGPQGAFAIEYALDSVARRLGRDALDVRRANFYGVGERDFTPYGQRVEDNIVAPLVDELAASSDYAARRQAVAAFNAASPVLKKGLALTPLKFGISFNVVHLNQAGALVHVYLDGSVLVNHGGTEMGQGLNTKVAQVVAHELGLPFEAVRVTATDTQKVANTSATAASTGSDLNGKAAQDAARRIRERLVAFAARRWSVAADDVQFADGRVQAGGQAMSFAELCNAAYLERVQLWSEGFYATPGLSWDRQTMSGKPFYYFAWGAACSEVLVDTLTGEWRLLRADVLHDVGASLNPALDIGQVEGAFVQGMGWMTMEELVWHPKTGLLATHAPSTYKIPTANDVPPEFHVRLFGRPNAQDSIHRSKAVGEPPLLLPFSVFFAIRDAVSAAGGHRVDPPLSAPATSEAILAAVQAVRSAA
T2 sequence (I0HWE6 1-493 partner): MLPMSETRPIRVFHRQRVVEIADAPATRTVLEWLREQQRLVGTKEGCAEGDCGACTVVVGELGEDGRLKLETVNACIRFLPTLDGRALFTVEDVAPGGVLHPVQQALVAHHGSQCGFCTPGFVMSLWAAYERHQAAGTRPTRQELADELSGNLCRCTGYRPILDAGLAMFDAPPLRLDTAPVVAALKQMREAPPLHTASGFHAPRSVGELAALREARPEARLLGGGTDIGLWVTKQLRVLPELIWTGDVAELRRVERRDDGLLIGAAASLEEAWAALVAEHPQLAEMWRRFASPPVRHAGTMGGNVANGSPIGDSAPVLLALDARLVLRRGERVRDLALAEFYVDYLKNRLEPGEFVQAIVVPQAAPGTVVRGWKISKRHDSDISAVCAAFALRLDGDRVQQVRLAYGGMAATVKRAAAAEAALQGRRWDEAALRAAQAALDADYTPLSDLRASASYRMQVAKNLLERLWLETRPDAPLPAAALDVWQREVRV
Nature of the experiment: in-gel NBT reductase activity, native PAGE of soluble fraction. It is filed as biochemical. As to conditions: NBT 2 mg/mL as electron acceptor; 50 mM Tris-HCl pH 7.6; room temperature.

For `COc1cc(-c2ccc(-n3nc(-c4ccccc4)n[n+]3-c3ccc([N+](=O)[O-])cc3)c(OC)c2)ccc1-n1nc(-c2ccccc2)n[n+]1-c1ccc([N+](=O)[O-])cc1` [nitroblue tetrazolium], the “in-gel NBT reductase activity, native PAGE of soluble fraction, no riboflavin” value in experiment [1] is given as “able to reduce NBT to NBT-formazan in the absence of riboflavin”.
Regarding `O=c1[nH]c(=O)c2[nH]cnc2[nH]1` [xanthine], the “in-gel NBT reductase activity, native PAGE of soluble fraction” value in experiment [2] is “the addition of xanthine to the native PAGE gel revealed a second active band”.
